Measurements taken from patent US5481013A, “Carboxylic acid derivatives” (Ciba-Geigy Corporation, priority 1992, dated 1996).

Legend:
Type in all cases: in vivo
adult Anthonomus grandis = assay: Activity against adult Anthonomus grandis; settings: 72 h, 400 ppm spray on young cotton plants, adults, evaluated after 3 days, read-out: percentage reduction in population or in feeding damage (% activity)
Protocol: (§1) Young cotton plants are sprayed with a spray mixture prepared with an aqueous emulsion and comprising 400 ppm of the active ingredient. After the spray coating has dried on, the cotton plants are populated with 10 adult Anthonomus grandis and placed into a plastic container. The test is evaluated after 3 days. The percentage reduction in population, or the percentage reduction in feeding damage (% activity), is determined by comparing the number of dead beetles and the feeding damage on the treated plants with those on the untreated plants.

[1] = system: Crocidolomia binotalis caterpillars; assay: Activity against Crocidolomia binotalis caterpillars; settings: Brassica oleracea, 72 h; 400 ppm spray on young cabbage plants, third larval stage, evaluated after 3 days; read-out: percentage reduction in population or in feeding damage (% activity)
Protocol: as §1, with “cabbage” for “cotton”, “infested” for “populated”, “Crocidolomia binotalis in the third larval stage” for “adult Anthonomus grandis”, “caterpillars” for “beetles”

Tetranychus urticae = assay: Activity against Tetranychus urticae; settings: 144 h, 400 ppm spray on young bean plants, mixed population, 6 days at 25° C, read-out: percentage reduction in population (% activity)
Protocol: Young bean plants are populated with a mixed population of Tetranychus urticae and, after 1 day, sprayed with a spray mixture prepared with an aqueous emulsion and comprising 400 ppm of the active ingredient. The plants are subsequently incubated for 6 days at 25° C and then evaluated. The percentage reduction in population (% activity) is determined by comparing the number of dead eggs, larvae and adults on the treated plants with those on the untreated ones.

Nilaparvata lugens [2] = assay: Systemic activity against Nilaparvata lugens; settings: 144 h, pots with rice plants in 400 ppm aqueous emulsion solution, larvae in stages 2 and 3, evaluated 6 days later, read-out: percentage reduction in population (% activity)
Protocol: Pots containing rice plants are placed into an aqueous emulsion solution comprising 400 ppm of the active ingredient. The rice plants are subsequently populated with larvae in stages 2 and 3. The test is evaluated 6 days later. The percentage reduction in population (% activity) is determined by comparing the numbers of plant hoppers on the treated plants with those on the untreated plants.

Nephotettix cincticeps = assay: Activity against Nephotettix cincticeps (spray on rice plants); settings: 504 h, 400 ppm spray on rice plants, larvae in stages 2 and 3, evaluated 21 days later, read-out: percentage reduction in population (% activity)
Protocol: Rice plants are treated with a spray mixture prepared with an aqueous emulsion and comprising 400 ppm of the active ingredient. After the spray coating has dried on, the rice plants are populated with leaf hopper larvae in stages 2 and 3. The test is evaluated 21 days later. The percentage reduction in population (% activity) is determined by comparing the number of surviving leaf hoppers on the treated plants with those on the untreated plants.

[3] = system: Panonychus ulmi (OP- and carb.- resistant); assay: Activity against Panonychus ulmi (OP- and carb.- resistant); settings: 336 h, 400 ppm spray on apple seedlings, evaluated after 14 days, read-out: percentage reduction in population (% activity)
Protocol: Apple seedlings are populated with adult females of Panonychus ulmi. After seven days, the infested plants are sprayed to drip point with an aqueous emulsion comprising 400 ppm of the test compound and grown in the greenhouse. The test is evaluated after 14 days. The percentage reduction in population (% activity) is determined by comparing the number of dead spider mites on the treated plants with those on the untreated plants. […] An activity of over 80% is shown, in particular, by compound Nos. 1.01, 2.01, 2.07, 2.08, 2.10, 2.12 to 2.16, 2.22, 2.23, 2.26, 3.01, 4.01, 4.02, 4.06, 5.01 to 5.03, 5.05, 5.06, 5.08, 5.10, 5.11, 5.15, 5.16 and 5.20 to 5.25.

Ctenocephalides felis = assay: Activity against Ctenocephalides felis; settings: 504 h, 100 ppm in flea larvae nutrient medium, flea eggs, checked after 21 days
Protocol: 20 to 25 flea eggs are placed into a horizontally positioned 50 ml tissue culture flask into which 15 g of flea larvae nutrient medium comprising 100 ppm of the active ingredient to be tested have previously been introduced. The test flasks are incubated in an incubator at 26° to 27° C. and an atmospheric humidity of 60-70%. After 21 days, the flasks are checked for the presence of adult fleas, unhatched pupae and larvae.

Heliothis virescens = assay: Ovicidal/larvicidal activity on Heliothis virescens; settings: 192 h, 400 ppm spray on eggs deposited on cotton, evaluated after 8 days, read-out: % reduction in population (hatching percentage of eggs and survival rate of caterpillars)
Protocol: Heliothis eggs which have been deposited on cotton are sprayed with a spray mixture prepared with an aqueous emulsion and comprising 400 ppm of the active ingredient. After 8 days, the hatching percentage of the eggs and the survival rate of the caterpillars are evaluated by comparing them with untreated control batches (% reduction in population).

Nilaparvata lugens [4] = assay: Activity against Nilaparvata lugens (spray on rice plants); settings: 504 h, 400 ppm spray on rice plants, larvae in stages 2 and 3, evaluated after 21 days, read-out: percentage reduction in population (% activity)
Protocol: Rice plants are treated with a spray mixture prepared with an aqueous emulsion and comprising 400 ppm of the active ingredient. After the spray coating has dried on, the rice plants are populated with plant hopper larvae in stages 2 and 3. The test is evaluated after 21 days. The percentage reduction in population (% activity) is determined by comparing the number of surviving plant hoppers on the treated plants with the number of plant hoppers on the untreated plants. […] An activity of over 80% is shown, in particular, by compound Nos. 1.01, 2.01 to 2.03, 2.07, 2.08, 2.10 to 2.16, 2.20, 2.22, 2.23, 2.26, 3.01, 4.01 to 4.06, 4.20, 5.01 to 5.06, 5.08, 5.10 to 5.12, 5.15, 5.16 and 5.20 to 5.25.

O=C(CCCCCC=C(F)F)OCCOc1ccc(Oc2ccccc2)cc1 [Compound 3.01]
> 80%: activity at 400 ppm (adult Anthonomus grandis) | activity at 400 ppm [1] | activity at 400 ppm (Tetranychus urticae) | activity at 400 ppm (Nilaparvata lugens [2]) | activity at 400 ppm (Nephotettix cincticeps) | activity at 400 ppm [3] | pest or weed control at 100 ppm (Ctenocephalides felis) | pest or weed control at 400 ppm (Heliothis virescens) | activity at 400 ppm (Nilaparvata lugens [4])

O=C(CC=C(F)F)OCCOc1ccc(Oc2ccccc2)cc1 [Compound 1.01, 2-(4-phenoxyphenoxy)ethyl-4,4-difluorobut-3-enoate]
> 80%: activity at 400 ppm (adult Anthonomus grandis) | activity at 400 ppm [1] | activity at 400 ppm (Tetranychus urticae) | activity at 400 ppm (Nilaparvata lugens [2]) | activity at 400 ppm (Nephotettix cincticeps) | activity at 400 ppm [3] | pest or weed control at 100 ppm (Ctenocephalides felis) | pest or weed control at 400 ppm (Heliothis virescens) | activity at 400 ppm (Nilaparvata lugens [4])
